Results on 1 compound are retold here after patent US20210147932A1, “FLUORESCENT PROBES FOR QUANTIFICATION OF DNA DAMAGE AND REPAIR” (The Board of Trustees of the Leland Stanford Junior …, priority 2019, published 2021).

The subject of assay [1] is DNA AP site (AP site containing DNA, oligo 15). The experiment in a line: Fluorescence response of probe covalently attached to the AP site of a DNA hairpin. The class given is biochemical. The procedure: FIG. 2B provides emission spectra of oligonucleotide-probe conjugates compared to the emission spectra of the free probe at 2 μM concentration in 50 mM Tris buffer pH 7.0. Excitation was at 470 nm for Compound (1) (also referred to herein as CCVJ1) and 450 nm for Compounds 8 and 9 (also referred to herein as NP1 and NP2) and Compounds 4 and 6 (also referred to herein as BD1 and BD2).
To assess the potential fluorescence response of each probe, a 17mer DNA hairpin containing a single AP site was prepared and reacted it with a 10-fold excess of probe overnight. The subsequent DNA-probe conjugates were precipitated to remove excess fluorophore and full DNA labelling was confirmed by MALDI-TOF mass spectrometry (Table 1). The reacted DNAs were re-suspended in buffer to a concentration of 2 μM and the emission spectra compared with the spectra of the free probes in solution. […] In addition to its large fluorescence response, CCVJ1 is accessed readily through a facile 4-step synthesis and has good spectral overlap with fluorescein. This makes the probe accessible to a wide range of researchers and well suited to the majority of fluorescence-based instruments.
(§1) In addition to the 5′ and 3′ neighboring bases, studies were done of the effect of the orphaned base Z paired opposite the abasic site on the UBER probe system (FIG. 10, panels C-D). Using the sequence where X=C and Y=G, the identity was varied of the base Z opposite the AP site. […] As a result, the smaller pyrimidine bases yielded a greater fluorescence light up response than the larger purine bases. It was also observed a strong effect by the opposing base on the rate of oxime formation (FIG. 10, panel D). […] This trend is in contrast to the neighboring base effect discussed above in which stronger stacking bases accelerated the rate of oxime formation.
(§2) General procedure for creating AP site DNA: A deoxyuridine containing oligonucleotide (typically 5-20 μM) was treated with 10 U/mL E. coli UDG (New England Biolabs) for 10 minutes at 37° C. in buffer to create AP site containing DNA (see below for MALDI-TOF confirmation). The hairpin was then reacted with probe from a DMSO stock solution (final DMSO concentration <5%).
Procedure for assessing fluorescence response of probes: To assess the fluorescence response of the probes, 25 μM AP site containing DNA (oligo 15) was prepared in a 20 μL solution and allowed to react with 500 μM of each probe overnight. The DNA was then precipitated by the addition of 80 μL 0.33 M sodium acetate and 300 μL ethanol and centrifuged at 21,100 g for 1 hr at 4° C. The resulting DNA pellet was washed twice with 70% EtOH and re-suspended in buffer to a concentration of 2 μM. A portion of the DNA pellet was used for MALDI-TOF analysis. The emission spectra of the probe-oligonucleotide conjugate was measured and compared against a 2 μM solution of the free probe

Another assay has as its system AP-DNA. The experiment in a line: Oxime formation kinetics of probe with AP-DNA. The format is biochemical. The protocol: FIG. 3 provides representative plots for calculations of k2 for Compound (1) (CCVJ1) under various buffer conditions with oligo 15. Plots were fitted in OriginPro 8.5 according to the equation derived by Larsen et. al.^5 for second-order rate constants of oxime formation. Apparent second-order rate constants were calculated as the average of three replicates.
FIG. 5A provides fluorescence real-times responses for oxime formation under varied conditions. The Time course of oxime formation between Compound (1) (CCVJ1) (5 μM) and AP-DNA (20 μM) under varied buffer conditions (50 mM) is shown. Ionic strength adjusted to 150 mM with NaCl
Next the reaction rates with CCVJ1 were evaluated. To measure oxime formation kinetics, 5 μM CCVJ1 was reacted with 20 μM AP DNA, and the resulting fluorescence time course was used to determine second-order rate constants by nonlinear regression analysis. Tris buffer was selected since it is commonly used in glycosylase assays with a salt concentration of 100 mM NaCl.
In addition to Tris buffer, oxime formation kinetics were also measured for CCVJ1 with AP DNA in a solution of a catalytic amine buffer previously shown to accelerate oxime formation. To this end, it was employed 50 mM N,N-dimethylethylenediamine (DEDA)•HCl buffered to a pH of 7.0 in place of the above Tris buffers. […] Such rapid rates of oxime formation at neutral pH are unprecedented for unactivated aldehydes.
as §1, §2
Fluorescence time courses: Unless otherwise stated, fluorescence time courses were collected on a Fluoroskan Ascent Microplate Fluorometer (Thermo Fisher Scientific) with black, non-binding 384 well plates (Greiner) at a reaction volume of 60 μL with 50 mM Tris buffer pH 7 (ionic strength adjusted to 100 mM with NaCl) with a fluorescein filter set (Ex. 485, Em. 538).

Assay [2] deals with DNA hairpin containing a tetrahydrofuran spacer (pseudo AP site). The experiment in a line: Fluorescence of probe with pseudo AP site DNA hairpin (non-covalent). The format is binding. The procedure:
FIG. 9 provides interaction between Compound (1) (CCVJ1) and DNA. […] (Ex. 485, Em. 538).
To further explore the hypothesis that the oxime rate acceleration in these AP-site DNAs was related to base stacking interactions, the fluorescence was measured of CCVJ1 in the presence and absence of a non-lesion containing DNA hairpin.

Several values for one entry are separate records, joined by “and”; a condition that tells them apart may be missing. Equal values may be shown once.

Take `N#C/C(=C\c1cc2c3c(c1)CCCN3CCC2)C(=O)NCCON` [CCVJ1]: the “increase in fluorescence when bound to the AP site vs free probe” value in assay [1] (17mer hairpin conjugate 2 μM vs free probe) is 256 fold. In addition, the “overall increase in fluorescence relative to the probe alone, optimal neighboring bases” value in assay [1] (AP hairpin X=C, Y=G, Z=C) came to 508 fold. Moreover, the “fluorescence light up response (summary)” value in assay [1] (relative to the unbound probe) is reported as 250-500 fold. In addition, the “rate of oxime formation with optimal neighboring bases” value in the assay on AP-DNA (AP hairpin X=C, Y=G, Z=C) is 320 ± 13 M⁻¹ s⁻¹. Besides, the “Apparent second-order rate constant of oxime formation k2” value is 440 M⁻¹ s⁻¹ and 440 ± 12 M⁻¹ s⁻¹ in the assay with AP-DNA (DEDA pH 7 (50 mM N,N-dimethylethylenediamine HCl)); 147 M⁻¹ s⁻¹ and 147 ± 8 M⁻¹ s⁻¹ in the assay with AP-DNA (Tris pH 7, 5 μM CCVJ1, 20 μM AP DNA); 51 ± 2 M⁻¹ s⁻¹ in the assay on AP-DNA (Tris pH 7.5); 29 ± 1 M⁻¹ s⁻¹ in the assay with AP-DNA (Tris pH 8). Moreover, the “rate in DEDA buffer, times faster than in Tris” value in the assay with AP-DNA (pH 7.0) is recorded as about 3 times. For the same compound, the “rate, times faster than typical oxime formation in neutral aqueous buffer” value with AP-DNA (pH 7.0) is 10^3-10^4 times. In addition, the “fluorescence with pseudo AP hairpin, higher than with undamaged DNA” value in assay [2] is recorded as about 4 fold. The “increase in fluorescence with pseudo AP hairpin over the free probe” value in assay [2] (5 μM probe, 20 μM DNA) is listed as about 10 fold.
